Data reported in patent US10077288B2, “Hydroxystatin derivatives for the treatment of arthrosis” (Merck Patent GmbH, priority 2012, dated 2018).

Biological target: T1, cathepsin D isolated from the human liver (Homo sapiens, UniProt P07339)
T1 construct: cathepsin D isolated from the human liver (Sigma-Aldrich); purchased Sigma-Aldrich; host or cells: human liver (tissue-derived, not recombinant)
Test: In-vitro fluorescence assay for identification of cathepsin D inhibitors
Format: biochemical
Settings: human liver cathepsin D 1.4 nM, pH 5.5; read-out: CatD assay IC50-(M)
Description: EXAMPLE 4: IN-VITRO FLUORESCENCE ASSAY FOR IDENTIFICATION OF CATHEPSIN D INHIBITORS
In order to identify modulators of cathepsin D activity, a continuous enzymatic test was carried out with a synthetic peptide which carries a fluorescent group (MCA=(7-methoxycoumarin-4-yl)acetyl) which is quenched by energy transfer from a Dpn (2,4 dinitrophenyl) group on the same molecule, in Greiner 384-well nb microtitre plates. Cleavage of the peptidic substrate by cathepsin D causes an increase in the fluorescence intensity. In order to determine the efficacy of substances, the time-dependent increase in the fluorescence intensity in the presence of the substance was compared with the time-dependent increase in fluorescence in the absence of substances. The reference substance used was pepstatin A (Sigma-Aldrich). The substrate used was MCA-GKPILFFRLK(Dnp)d-R—NH2 (Enzo Life Sciences, Lörrach). The enzyme employed was cathepsin D isolated from the human liver (Sigma-Aldrich) in a final concentration of 1.4 nM. The test was carried out in 100 mM sodium acetate buffer, 1.25% (v/v) of DMSO, 0.25% (w/v) of Chaps, pH 5.5. 2 μl of each substance solution with serially diluted substance concentration were added to in each case 4 μl of cathepsin D solution and incubated at room temperature for 10 min. The reaction was started by addition of 2 μl of substrate solution (final concentration 5 μM). After carrying out a starting-point fluorescence measurement (excitation wavelength 340 nm/emission wavelength 450 nm) using an Envision multilabel reader (Perkin Elmer), the reaction was incubated at room temperature for 60 min. The amount of peptide fragment cleaved off during the reaction time was subsequently measured by determination of the increase in the fluorescence intensity at 450 nm (excitation wavelength 340 nm).

T1 sequence (P07339 65-161 limits assumed): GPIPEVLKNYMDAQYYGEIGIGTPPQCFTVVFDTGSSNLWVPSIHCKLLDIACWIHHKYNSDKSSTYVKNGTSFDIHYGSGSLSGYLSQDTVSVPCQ
T1 sequence (P07339 169-412 limits assumed): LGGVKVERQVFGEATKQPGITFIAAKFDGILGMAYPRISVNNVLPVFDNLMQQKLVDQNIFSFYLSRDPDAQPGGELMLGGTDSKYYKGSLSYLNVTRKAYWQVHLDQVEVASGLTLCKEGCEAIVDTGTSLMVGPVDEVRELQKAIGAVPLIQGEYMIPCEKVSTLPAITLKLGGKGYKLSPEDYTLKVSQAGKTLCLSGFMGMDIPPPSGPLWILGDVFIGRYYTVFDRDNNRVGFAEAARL

Row | Compound | IC50
1 | CC[C@H](C)[C@H](NC(=O)C[C@H](O)[C@H](Cc1ccccc1)NC(=O)[C@@H](NC(=O)Cc1ccc(OC)cc1)C(C)C)C(=O)N[C@H](C(=O)OCc1ccccc1)C(C)C [Compound 11, benzly (S)-2-[(2S,3S)-2-((3S,4S)-3-hydroxy-4-{(S)-2-[2-(4-methoxy-phenyl)acetylamino]-3-methylbutyrylamino}-5-phenylpentanoylamino)-3-methylpentanoylamino]-3-methylbutyrate] | 9e-08 M
2 | CCOc1cccc(CC(=O)N[C@H](C(=O)N[C@@H](Cc2ccccc2)[C@@H](O)CC(=O)N[C@H](C(=O)N[C@H](C(=O)OCc2ccccc2)C(C)C)[C@@H](C)CC)[C@@H](C)CC)c1 [Compound 34, benzly (S)-2-[(2S,3S)-2-((3S,4S)-4-{(S)-2-[2-(3-ethoxyphenyl)-acetylamino]-3-methyl-1-(S)-oxopentylamino}-3-hydroxy-5-phenylpentanoylamino)-3-methylpentanoylamino]-3-methylbutyrate] | 2.7e-07 M
3 | CCOc1cccc(CC(=O)N[C@H](C(=O)N[C@@H](Cc2ccccc2)[C@@H](O)CC(=O)N[C@H](C(=O)N[C@H](C(=O)OCc2ccccc2)C(C)C)[C@@H](C)CC)C(C)C)c1 [Compound 12, benzly (S)-2-[(2S,3S)-2-((3S,4S)-4-{(S)-2-[2-(3-ethoxyphenyl)-acetylamino]-3-methylbutyrylamino}-3-hydroxy-5-phenylpentanoylamino)-3-methylpentanoylamino]-3-methylbutyrate] | 2.5e-08 M
4 | CCC(CC)NC(=O)[C@@H](NC(=O)C[C@H](O)[C@H](Cc1ccccc1)NC(=O)[C@@H](NC(=O)[C@H](CC(C)C)NC(=O)Cc1ccccc1)C(C)C)[C@@H](C)CC [Compound 43, N-[(1S,2S)-1-(1-ethylpropylcarbamoyl)-2-methylbutyl]-(2S,5S)-3-hydroxy-4-[(S)-3-methyl-2-((S)-4-methyl-2-phenylacetylaminopentanoylamino)-1-oxobutylamino]-5-phenylpentanamide] | 3.5e-09 M
5 | CC[C@H](C)[C@H](NC(=O)C[C@H](O)[C@H](Cc1ccccc1)NC(=O)[C@@H](NC(=O)Cc1cccc(OCCNC(=O)OC(C)(C)C)c1)[C@@H](C)CC)C(=O)N[C@H](C(=O)O)C(C)C [Compound 39, (S)-2-{(2S,3S)-2-[(3S,4S)-4-((S)-2-{2-[3-(2-tert-butoxycarbonyl-aminoethoxy)phenyl]acetylamino}-3-methyl-1-(S)-oxopentylamino)-3-hydroxy-5-phenylpentanoylamino]-3-methylpentanoylamino}-3-methylbutyric acid] | 3.9e-08 M
6 | CCOc1cccc(CC(=O)N[C@H](C(=O)N[C@@H](Cc2ccccc2)[C@@H](O)CC(=O)N[C@H](C(=O)N[C@H](C(=O)O)C(C)C)[C@@H](C)CC)C(C)C)c1 [Compound 17, (S)-2-[(2S,3S)-2-((3S,4S)-4-{(S)-2-[2-(3-ethoxyphenyl)acetylamino]-3-methylbutyrylamino}-3-hydroxy-5-phenylpentanoylamino)-3-methylpentanoylamino]-3-methylbutyric acid] | 1.55e-08 M
7 | CC[C@H](C)[C@H](NC(=O)C[C@H](O)[C@H](Cc1ccccc1)NC(=O)[C@@H](NC(=O)[C@@H](O)c1ccccc1)C(C)C)C(=O)N[C@H](C(=O)OCc1ccccc1)C(C)C [Compound 35, benzly (S)-2-((2S,3S)-2-{(3S,4S)-3-hydroxy-4-[(S)-2-((S)-2-hydroxy-2-phenylacetylamino)-3-methylbutyrylamino]-5-phenylpentanoylamino}-3-methylpentanoylamino)-3-methylbutyrate] | 5.8e-07 M
8 | CC[C@H](C)[C@H](NC(=O)C[C@H](O)[C@H](Cc1ccccc1)NC(=O)[C@@H](NC(=O)Cc1ccc(OC)c(OC)c1)C(C)C)C(=O)N[C@H](C(=O)OCc1ccccc1)C(C)C [Compound 10, benzly (S)-2-[(2S,3S)-2-((3S,4S)-4-{(S)-2-[2-(3,4-dimethoxyphenyl)-acetylamino]-3-methylbutyrylamino}-3-hydroxy-5-phenylpentanoylamino)-3-methylpentanoylamino]-3-methylbutyrate] | 2.9e-08 M
9 | CC[C@H](C)[C@H](NC(=O)C[C@H](O)[C@H](Cc1ccccc1)NC(=O)[C@@H](NC(=O)Cc1ccc2ccccc2c1)C(C)C)C(=O)N[C@H](C(=O)OCc1ccccc1)C(C)C [Compound 16, benzly (S)-2-((2S,3S)-2-{(3S,4S)-3-hydroxy-4-[(S)-3-methyl-2-(2-naphthalen-2-ylacetylamino)butyrylamino]-5-phenylpentanoylamino}-3-methylpentanoylamino)-3-methylbutyrate] | 1.5e-07 M
10 | CC[C@H](C)[C@H](NC(=O)C[C@H](O)[C@H](Cc1ccccc1)NC(=O)[C@@H](NC(=O)[C@@H](O)c1ccccc1)C(C)C)C(=O)N[C@H](C(=O)O)C(C)C [Compound 37, (S)-2-((2S,3S)-2-{(3S,4S)-3-hydroxy-4-[(S)-2-((S)-2-hydroxy-2-phenylacetylamino)-3-methylbutyrylamino]-5-phenylpentanoylamino}-3-methylpentanoylamino)-3-methylbutyric acid] | 3.1e-07 M
11 | CC[C@H](C)[C@H](NC(=O)C[C@H](O)[C@H](Cc1ccccc1)NC(=O)[C@@H](NC(=O)Cc1ccccc1OC)C(C)C)C(=O)N[C@H](C(=O)OCc1ccccc1)C(C)C [Compound 22, benzly (S)-2-[(2S,3S)-2-((3S,4S)-3-hydroxy-4-{(S)-2-[2-(2-methoxy-phenyl)acetylamino]-3-methylbutyrylamino}-5-phenylpentanoylamino)-3-methylpentanoylamino]-3-methylbutyrate] | 2.1e-07 M

More lines, in order of falling IC50, values ahead:

Row | IC50 | Compound
12 | 7e-06 M | CC[C@H](C)[C@H](NC(=O)C[C@H](O)[C@H](Cc1ccccc1)NC(=O)[C@@H](NC(=O)C(CC)(CC)CC)C(C)C)C(=O)N[C@H](C(=O)O)C(C)C [Compound 38, (S)-2-((2S,3S)-2-{(3S,4S)-4-[(S)-2-(2,2-diethylbutyrylamino)-3-methylbutyrylamino]-3-hydroxy-5-phenylpentanoylamino}-3-methylpentanoylamino)-3-methylbutyric acid]
13 | 1.2e-06 M | CC[C@H](C)[C@H](NC(=O)C[C@H](O)[C@H](Cc1ccccc1)NC(=O)[C@@H](NC(=O)Cc1cccc2ccccc12)C(C)C)C(=O)N[C@H](C(=O)OCc1ccccc1)C(C)C [Compound 21, benzly (S)-2-((2S,3S)-2-{(3S,4S)-3-hydroxy-4-[(S)-3-methyl-2-(2-naphthalen-1-ylacetylamino)butyrylamino]-5-phenylpentanoylamino}-3-methylpentanoylamino)-3-methylbutyrate]
14 | 3.2e-07 M | CC[C@H](C)[C@H](NC(=O)C[C@H](O)[C@H](Cc1ccccc1)NC(=O)[C@@H](NC(=O)C(c1ccccc1)c1ccccc1)C(C)C)C(=O)N[C@H](C(=O)OCc1ccccc1)C(C)C [Compound 32, benzyl (S)-2-{(2S,3S)-2-[(3S,4S)-4-((S)-2-diphenylacetylamino-3-methylbutyrylamino)-3-hydroxy-5-phenylpentanoylamino]-3-methylpentanoylamino}-3-methylbutyrate]
15 | 8.5e-08 M | CC[C@H](C)[C@H](NC(=O)C[C@H](O)[C@H](Cc1ccccc1)NC(=O)[C@@H](NC(=O)Cc1cccc2ccccc12)C(C)C)C(=O)N[C@H](C(=O)O)C(C)C [Compound 30, (S)-2-((2S,3S)-2-{(3S,4S)-3-hydroxy-4-[(S)-3-methyl-2-(2-naphthalen-1-ylacetylamino)butyrylamino]-5-phenylpentanoylamino}-3-methylpentanoylamino)-3-methylbutyric acid]
16 | 1.8e-09 M | CC[C@H](C)[C@H](NC(=O)C[C@H](O)[C@H](Cc1ccccc1)NC(=O)[C@@H](NC(=O)[C@H](CC(C)C)NC(=O)CC(C)C)C(C)C)C(=O)NC1CCCC1 [Compound 46, N-((1S,2S)-1-cyclopentylcarbamoyl-2-methylbutyl)-(2S,5S)-3-hydroxy-4-{(S)-3-methyl-2-[(S)-4-methyl-2-(3-methylbutyrylamino)-pentanoylamino]butyrylamino}-5-phenylpentanamide]
17 | 6.5e-10 M | CCC(CC)NC(=O)[C@@H](NC(=O)C[C@H](O)[C@H](Cc1ccccc1)NC(=O)[C@@H](NC(=O)[C@H](CC(C)C)NC(=O)CC(C)C)C(C)C)C(C)C [Compound 47, N—[(S)-1-(1-ethylpropylcarbamoyl)-2-methylpropyl]-(3S,4S)-3-hydroxy-4-{(S)-3-methyl-2-[(S)-4-methyl-2-(3-methylbutyrylamino)-pentanoylamino]butyrylamino}-5-phenylpentanamide]
18 | 2.1e-10 M | CC[C@H](C)[C@H](NC(=O)C[C@H](O)[C@H](Cc1ccccc1)NC(=O)[C@@H](NC(=O)[C@H](CC(C)C)NC(=O)CC(C)C)C(C)C)C(=O)NC(C)(C)CCO [Compound 49, N-[(1S,2S)-1-(3-hydroxy-1,1-dimethylpropylcarbamoyl)-2-methylbutyl]-(3S,4S)-3-hydroxy-4-{(S)-3-methyl-2-[(S)-4-methyl-2-(3-methylbutyrylamino)pentanoylamino]butyrylamino}-5-phenylpentanamide]
